Values of other authors in US20020137785A1, “Inflammatory mechanism modulator composition and methods with anti-asthmatic properties” (priority 2001, published 2002).

Columns and labels:
[1] = people with septic shock; NAC alone; reduced from 21 days
[2] = intravenous; coronary artery disease; tachycardia induced in the electrophysiology laboratory

Compound | ventilator time (mechanical breathing) [1] | aborting monomorphic ventricular tachycardia [2]
CC(=O)N[C@@H](CS)C(=O)O [NAC, N-acetyl-cysteine] | about 7 days | 
O=S(=O)([O-])[O-].[Mg+2] [magnesium sulfate] |  | ineffective
